The source of these data is patent publication US11633382B2, “Treatment of ER-negative breast cancer with an PDGF-CC inhibitor and anti-estrogen” (Paracrine Therapeutics AB, priority 2015, dated 2023).

For assay [1], the system named is Human MDA-MB-231 cells. Briefly: MDA-MB-231 orthotopic xenograft, anti-PDGF-CC and aromatase inhibitor (Example 2). It counts as in vivo, SCID mice. The note with it: A3B6 i.p. twice a week, letrozole 1 mg/dose oral daily; combination p<0.01 vs control, p<0.05 vs A3B6, p<0.001 vs letrozole (FIG. 7). From the text: All therapeutic administrations were open-label.

Assay [2] has as its system MMTV-PyMT; Pdgfc+/+ tumors. Briefly: Orthotopically transplanted MMTV-PyMT; Pdgfc+/+ (wt) tumors, tamoxifen trial. It counts as in vivo, FVB/N mice. The settings on record: tamoxifen daily (FIG. 6a). The method, then:
(§1) 3 weeks old FVB/N (common background strain for both MMTV-PyMT and PDGF-C mice) female mice were anesthetized and maintained under Isolfluorane during the surgical procedure. A 4 mm incision under the nipple of the right abdominal mammary gland created a pocket where a 2×2 mm tumor piece (kept on ice, either from MMTV-PyMT or MMTV-PyMT; PDGF-C tumors) was inserted. Suturing was performed with 6-O Ethilon polyamide filament (Ethicon). Pain-killer and anti-inflammatory Rimadyl (5 mg/kg body weight; Orion Pharma Animal Health) was injected i.p. at the end of the surgical procedure and for the following two days. For the therapeutic trial, Tamoxifen (2 mg/mL) was diluted in corn oil (vehicle) and administered via oral gavage daily.
(§2) Mouse mammary cell lines MMTV . . . MMTV/PDGF-C−/− . . . (established in our laboratory) were orthotopically injected into the 4th inguinal mammary gland on FVB/N mice. Furthermore, small tumor pieces (2 mm^3) of MMTV-PyMT and MMTV-PDGF-CC−/− tumors were directly orthotopically transplanted under anesthesia. The mice were subjected to Rimadyl immediately after the surgery and the following two days for analgetics. The tumors were measured twice a week and mice were euthanized as described above. […]

The subject of assay [3] is ER-negative breast cancer. The note with it: ER-negative disease, patients; cited from earlier work.
Assay [4] concerns MDA-MB-231 tumors (basal-like subtype). Nature of the assay: MDA-MB-231 xenograft in SCID mice, tumor growth and angiogenesis (Example 1). It counts as in vivo. The note with it: tamoxifen oral gavage daily with control antibody or A3B6 (FIG. 6c-d). The method, then:
2×10^6 Human MDA-MB-231 cells were inoculated subcutaneously in immunodeficient mice. […] When tumors were palpable (longest diameter >3 mm), mice were randomized and treated with Tamoxifen (3 mg/kg) or vehicle (corn oil) via oral gavage daily.
In order to investigate whether pharmacological targeting of PDGF-CC as a mono-therapy impacted on breast tumor growth or angiogenesis, we treated SCID mice bearing orthotopically implanted MDA-MB-231 tumors (basal-like subtype) twice-weekly with the PDGF-CC antibody, A3B6 or with control antibody.
The clinically most important distinguishing feature of luminal subtype breast tumors is the expression of ERα, which confers sensitivity to hormone therapy, such as tamoxifen. We next set out to investigate whether targeting of PDGF-CC would convey sensitivity to hormone therapy to previously impervious ER-negative breast tumors of basal-like subtype. Non-transgenic mice bearing orthopically transplanted tumors from MMTV-PyMT; Pdgfc^+/+ or MMTV-PyMT; Pdgfc^lacz/lacz mice were treated daily with tamoxifen starting from […].

Assay [5] deals with MMTV-PyMT; Pdgfc^lacz/lacz tumors. Nature of the assay: Orthotopically transplanted MMTV-PyMT; Pdgfc lacz/lacz tumors, tamoxifen trial. It counts as in vivo, FVB/N mice. The note with it: Pdgfc-deficient tumors. Here is the method:
as §1, §2

As to `N#Cc1ccc(C(c2ccc(C#N)cc2)n2cncn2)cc1` [letrozole], in assay [1], the “tumor growth, difference between groups” value is listed as “no other differences are statistically significant”.
For the molecule `CCC(=C(c1ccccc1)c1ccc(OCCN(C)C)cc1)c1ccccc1` [tamoxifen, 2-[4-(1,2-diphenylbut-1-enyl)phenoxy]-N,N-dimethyl-ethanamine], the “tumor growth rate vs untreated mice” value in assay [2] is listed as “continued to grow at a similar rate”. Moreover, the “effect on breast cancer recurrence or mortality” value in assay [3] was “little or no effect”. Moreover, the “growth of fully established MDA-MB-231 tumors” value in assay [4] is recorded as “unable to influence the growth”. Besides, the tumor growth entry in assay [5] (tamoxifen daily (FIG. 6b)) was “severely growth-retarded”. Also, the “tumor volume at the end of the trial” value in assay [5] (tamoxifen daily, untreated tumors had grown) is recorded as “reduced volume”.
